# How the values were obtained:
# Assay type in all cases: cell-based, human
# SNB-75 = assay: NCI60 antitumor screening; settings: 10 μM one-dose
# UO-31 = assay: NCI60 antitumor screening; settings: 10 μM one-dose
# SR = assay: NCI60 antitumor screening; settings: 10 μM one-dose
# HT29 = assay: NCI60 antitumor screening; settings: 10 μM one-dose
# SW-620 = assay: NCI60 antitumor screening; settings: 10 μM one-dose
# T-47D = assay: NCI60 antitumor screening; settings: 10 μM one-dose
# M14 = assay: NCI60 antitumor screening; settings: 10 μM one-dose
# SK-OV-3 = assay: NCI60 antitumor screening; settings: 10 μM one-dose
# A549/ATCC = assay: NCI60 antitumor screening; settings: 10 μM one-dose
# HS 578T = assay: NCI60 antitumor screening; settings: 10 μM one-dose
# MDA-MB-435 = assay: NCI60 antitumor screening; settings: 10 μM one-dose
# CCRF-CEM = assay: NCI60 antitumor screening; settings: 10 μM one-dose
# EKVX = assay: NCI60 antitumor screening; settings: 10 μM one-dose
# NCI-H322M = assay: NCI60 antitumor screening; settings: 10 μM one-dose
# MDA-MB-468 = assay: NCI60 antitumor screening; settings: 10 μM one-dose
# OVCAR-3 = assay: NCI60 antitumor screening; settings: 10 μM one-dose
# U251 = assay: NCI60 antitumor screening; settings: 10 μM one-dose
# HCT-15 = assay: NCI60 antitumor screening; settings: 10 μM one-dose
# TK-10 = assay: NCI60 antitumor screening; settings: 10 μM one-dose
# COLO 205 = assay: NCI60 antitumor screening; settings: 10 μM one-dose
# OVCAR-4 = assay: NCI60 antitumor screening; settings: 10 μM one-dose
# K-562 = assay: NCI60 antitumor screening; settings: 10 μM one-dose
# CAKI-1 = assay: NCI60 antitumor screening; settings: 10 μM one-dose
# SN12C = assay: NCI60 antitumor screening; settings: 10 μM one-dose
# NCI-H522 = assay: NCI60 antitumor screening; settings: 10 μM one-dose
# 786–0 = assay: NCI60 antitumor screening; settings: 10 μM one-dose
# MOLT-4 = assay: NCI60 antitumor screening; settings: 10 μM one-dose
# DU-145 = assay: NCI60 antitumor screening; settings: 10 μM one-dose
# HCT-116 = assay: NCI60 antitumor screening; settings: 10 μM one-dose
# KM12 = assay: NCI60 antitumor screening; settings: 10 μM one-dose
# NCI-H226 = assay: NCI60 antitumor screening; settings: 10 μM one-dose
# UACC-62 = assay: NCI60 antitumor screening; settings: 10 μM one-dose
# SF-268 = assay: NCI60 antitumor screening; settings: 10 μM one-dose
# NCI/ADR-RES = assay: NCI60 antitumor screening; settings: 10 μM one-dose
# SK-MEL-5 = assay: NCI60 antitumor screening; settings: 10 μM one-dose
# SF-539 = assay: NCI60 antitumor screening; settings: 10 μM one-dose
# MALME-3M = assay: NCI60 antitumor screening; settings: 10 μM one-dose
# MDA-MB-231/ATCC = assay: NCI60 antitumor screening; settings: 10 μM one-dose
# NCI-H460 = assay: NCI60 antitumor screening; settings: 10 μM one-dose
# OVCAR-8 = assay: NCI60 antitumor screening; settings: 10 μM one-dose
# BT-549 = assay: NCI60 antitumor screening; settings: 10 μM one-dose
# RPMI-8226 = assay: NCI60 antitumor screening; settings: 10 μM one-dose
# SNB-19 = assay: NCI60 antitumor screening; settings: 10 μM one-dose
# HL-60(TB) = assay: NCI60 antitumor screening; settings: 10 μM one-dose
# A498 = assay: NCI60 antitumor screening; settings: 10 μM one-dose
# UACC-257 = assay: NCI60 antitumor screening; settings: 10 μM one-dose
# RXF 393 = assay: NCI60 antitumor screening; settings: 10 μM one-dose
# MCF7 = assay: NCI60 antitumor screening; settings: 10 μM one-dose
# ACHN = assay: NCI60 antitumor screening; settings: 10 μM one-dose
# SK-MEL-28 = assay: NCI60 antitumor screening; settings: 10 μM one-dose
# PC-3 = assay: NCI60 antitumor screening; settings: 10 μM one-dose
# NCI60 cell lines panel = assay: NCI60 antitumor screening, full panel; settings: 10 μM one-dose, mean over NCI60
# Protocol: The National Cancer Institute (NCI), Bethesda, Maryland, United States, selected all of the novel synthesized compounds (2b–d, 3a–d and 4a–p) for in vitro antitumor screening at a single concentration of 10 μM toward the NCI60 cell lines panel covering leukaemia, non-small cell lungs, colon, central nervous system (CNS), melanoma, ovarian, renal, prostate, and breast cancer cells.[32–35] The data were reported as a mean graph of the percent growth of the treated cell lines and expressed as percentage growth inhibition (GI%) in Table 1 and ESI 1.
# (2) The molar concentration of the compound responsible for total growth inhibition, also known as total growth inhibition (TGI).
# Regarding subpanel selectivity toward certain cancer type, the method of determining a compound's selectivity index is to divide the full panel MG-MID (μM) value by each single subpanel. Values above six indicate high selectivity against the subpanel; moderate selectivity is denoted by values between three and six. Conversely, compounds are termed nonselective if their selectivity is less than three.[30,37]
# OVCAR-5 = assay: NCI60 antitumor screening; settings: 10 μM one-dose
# LOX IMVI = assay: NCI60 antitumor screening; settings: 10 μM one-dose
# HCC-2998 = assay: NCI60 antitumor screening; settings: 10 μM one-dose
# SF-295 = assay: NCI60 antitumor screening; settings: 10 μM one-dose
# HOP-92 = assay: NCI60 antitumor screening; settings: 10 μM one-dose
# NCI-H23 = assay: NCI60 antitumor screening; settings: 10 μM one-dose
# HOP-62 = assay: NCI60 antitumor screening; settings: 10 μM one-dose
# SK-MEL-2 = assay: NCI60 antitumor screening; settings: 10 μM one-dose
# IGROV1 = assay: NCI60 antitumor screening; settings: 10 μM one-dose
structure (smiles),measurement,setting,value
"N#Cc1c(Cl)nc(SCc2ccc(F)cc2)nc1-c1ccc(F)cc1 [3b, 4-Chloro-2-((4-fluorobenzyl)thio)-6-(4-fluorophenyl) pyrimidine-5-carbonitrile]",GI%,SNB-75,— (GI% < 10)
same,GI%,UO-31,12.89%
same,GI%,SR,— (GI% < 10)
same,GI%,HT29,13.44%
same,GI%,SW-620,— (GI% < 10)
same,GI%,T-47D,33.18%
same,GI%,M14,— (GI% < 10)
same,GI%,SK-OV-3,— (GI% < 10)
same,GI%,A549/ATCC,— (GI% < 10)
same,GI%,HS 578T,— (GI% < 10)
same,GI%,MDA-MB-435,— (GI% < 10)
same,GI%,CCRF-CEM,13.30%
same,GI%,EKVX,10.91%
same,GI%,NCI-H322M,— (GI% < 10)
same,GI%,MDA-MB-468,— (GI% < 10)
same,GI%,OVCAR-3,— (GI% < 10)
same,GI%,U251,— (GI% < 10)
same,GI%,HCT-15,13.00%
same,GI%,TK-10,— (GI% < 10)
same,GI%,COLO 205,— (GI% < 10)
same,GI%,OVCAR-4,— (GI% < 10)
same,GI%,K-562,30.20%
same,GI%,CAKI-1,— (GI% < 10)
same,GI%,SN12C,19.06%
same,GI%,NCI-H522,25.38%
same,GI%,786–0,— (GI% < 10)
same,GI%,MOLT-4,19.35%
same,GI%,DU-145,— (GI% < 10)
same,GI%,HCT-116,18.51%
same,GI%,KM12,— (GI% < 10)
same,GI%,NCI-H226,28.68%
same,GI%,UACC-62,13.95%
same,GI%,SF-268,— (GI% < 10)
same,GI%,NCI/ADR-RES,13.45%
same,GI%,SK-MEL-5,13.82%
same,GI%,SF-539,— (GI% < 10)
same,GI%,MALME-3M,— (GI% < 10)
same,GI%,MDA-MB-231/ATCC,— (GI% < 10)
same,GI%,NCI-H460,— (GI% < 10)
same,GI%,OVCAR-8,10.81%
same,GI%,BT-549,— (GI% < 10)
same,GI%,RPMI-8226,— (GI% < 10)
same,GI%,SNB-19,— (GI% < 10)
same,GI%,HL-60(TB),49.83%
same,GI%,A498,— (GI% < 10)
same,GI%,UACC-257,— (GI% < 10)
same,GI%,RXF 393,10.29%
same,GI%,MCF7,17.40%
same,GI%,ACHN,— (GI% < 10)
same,GI%,SK-MEL-28,— (GI% < 10)
same,GI%,PC-3,— (GI% < 10)
same,Mean GI%,NCI60 cell lines panel,— (GI% < 10)
same,GI%,OVCAR-5,— (GI% < 10)
same,GI%,LOX IMVI,— (GI% < 10)
same,GI%,HCC-2998,— (GI% < 10)
same,GI%,SF-295,10.01%
same,GI%,HOP-92,25.21%
same,GI%,NCI-H23,— (GI% < 10)
same,GI%,HOP-62,— (GI% < 10)
same,GI%,SK-MEL-2,— (GI% < 10)
same,GI%,IGROV1,— (GI% < 10)
"N#Cc1c(Cl)nc(SCc2ccc([N+](=O)[O-])cc2)nc1-c1ccc(F)cc1 [3c, 4-Chloro-6-(4-fluorophenyl)-2-((4-nitrobenzyl)thio) pyrimidine-5-carbonitrile]",GI%,SNB-75,— (GI% < 10)
same,GI%,UO-31,32.10%
same,GI%,SR,— (GI% < 10)
same,GI%,HT29,61.63%
same,GI%,SW-620,37.21%
same,GI%,T-47D,68.67%
same,GI%,M14,12.41%
same,GI%,SK-OV-3,11.73%
same,GI%,A549/ATCC,33.50%
same,GI%,HS 578T,13.31%
same,GI%,MDA-MB-435,— (GI% < 10)
same,GI%,CCRF-CEM,32.30%
same,GI%,EKVX,20.38%
same,GI%,NCI-H322M,13.28%
same,GI%,MDA-MB-468,19.68%
same,GI%,OVCAR-3,13.71%
same,GI%,U251,31.17%
same,GI%,HCT-15,45.64%
same,GI%,TK-10,— (GI% < 10)
same,GI%,COLO 205,22.66%
same,GI%,OVCAR-4,18.42%
same,GI%,K-562,44.30%
same,GI%,CAKI-1,32.89%
same,GI%,SN12C,29.81%
same,GI%,NCI-H522,37.48%
same,GI%,786–0,21.29%
same,GI%,MOLT-4,38.07%
same,GI%,DU-145,24.93%
same,GI%,HCT-116,40.70%
same,GI%,KM12,27.77%
same,GI%,NCI-H226,46.54%
same,GI%,UACC-62,22.80%
same,GI%,SF-268,18.20%
same,GI%,NCI/ADR-RES,27.59%
same,GI%,SK-MEL-5,22.36%
same,GI%,SF-539,28.21%
same,GI%,MALME-3M,— (GI% < 10)
same,GI%,MDA-MB-231/ATCC,— (GI% < 10)
same,GI%,NCI-H460,13.48%
same,GI%,OVCAR-8,16.16%
same,GI%,BT-549,43.62%
same,GI%,RPMI-8226,41.51%
same,GI%,SNB-19,10.67%
same,GI%,HL-60(TB),57.98%
same,GI%,A498,— (GI% < 10)
same,GI%,UACC-257,24.66%
same,GI%,RXF 393,29.76%
same,GI%,MCF7,27.06%
same,GI%,ACHN,14.60%
same,GI%,SK-MEL-28,— (GI% < 10)
same,GI%,PC-3,57.37%
same,Mean GI%,NCI60 cell lines panel,23.91%
same,GI%,OVCAR-5,— (GI% < 10)
same,GI%,LOX IMVI,14.22%
same,GI%,HCC-2998,12.17%
same,GI%,SF-295,29.81%
same,GI%,HOP-92,45.40%
same,GI%,NCI-H23,12.20%
same,GI%,HOP-62,— (GI% < 10)
same,GI%,SK-MEL-2,— (GI% < 10)
same,GI%,IGROV1,— (GI% < 10)

# Source: publication PMC10620772, “Design, synthesis, and biological evaluation of new pyrimidine-5-carbonitrile derivatives as novel anti-cancer, dual EGFR^WT/COX-2 inhibitors with docking studies” (RSC Advances, 2023)
